In PMC3433414, “Oral Administration of the Pimelic Diphenylamide HDAC Inhibitor HDACi 4b Is Unsuitable for Chronic Inhibition of HDAC Activity in the CNS In Vivo” (PLoS ONE, 2012):

Legend:
[1] = test system: histone acetylation in mouse brain; test: Histone acetylation in brain tissue (central pharmacodynamics); conditions: 150 mg/kg po bid, five consecutive days; 1 h post last dose
Method: Cortical tissue from the mice was assessed using specific antibodies for increases in acetylation of specific lysine residues on Histones H3 (H3K4, H3K9, H3K14) and H4 (H4K5) as well as global acetylation of H3 (Ac-H3) and H4 (Ac-H4). The acetylation level was normalized to total H3 and H4 expression level. The samples from the rest of the brain were analyzed for terminal 4b levels at the time of sacrifice. […] Mouse brains were harvested, dissected, immediately frozen in liquid nitrogen and stored at −80°C. Mouse brain tissue was homogenized (polytron homogenizer, 20 s) in 2 volumes of histone extraction buffer (1×PBS, 5% Triton X-100 (v/v), 3 mM DTT, 1 mM orthovanadate, 5 mM NaF, 1 mM PMSF, 5 mM Na Butyrate, Roche complete protease inhibitor tablet) and centrifuged at 900 g for 8 min at 4°C. The resulting pellet was washed twice in 1 ml of histone extraction buffer before being re-suspended in 2–3 volumes of 0.2 M HCl. Samples were then vortexed briefly and left to shake vigorously for 3 h at 4°C using a VXR Vibrax 1.5 ml polypropylene tube shaker (IKA). After shaking, samples were centrifuged at 900 g for 8 min at 4°C and the resulting supernatant was retained and neutralized with 0.2 volumes of 1 M NaOH.

[2] = test system: diversity panel of 72 binding and 29 enzyme assays; test: Cerep Diversity Profile, overall; conditions: 10 µM, duplicate
Text: (§1) In addition to the HDAC profiling performed, we also queried 4b for any apparent potential off-target effects, which could complicate any finding of efficacy or adverse events in vivo due to ‘polypharmacy’. This was accomplished by screening against a ‘diversity panel’ of 72 binding and 29 enzyme assays, comprised of roughly equal numbers of selective central and peripheral therapeutically relevant targets (Cerep Diversity Profile). This panel included representative targets from diverse enzyme families, G protein coupled receptors, steroid nuclear receptors, voltage- and ligand-gated ion channels. While not totally inclusive, it is a useful tool for discovery compounds to assess their viability as proof of concept molecules to specifically query a particular target. 4b was initially screened at 10 µM in duplicate. The full set of results is provided as Table S1. […] This clean in vitro profile was considered acceptable to proceed to ADME and pharmacokinetic studies.

HDAC3-NcoR2 = molecular target: T1, HDAC3-NcoR2 (Homo sapiens, UniProt O15379); test: Two-step fluorogenic deacetylase assay, recombinant HDAC3; assay type: biochemical
T1 construct: purified recombinant human full length HDAC1 (cat# 50051), HDAC2 (cat# 50052), HDAC3-NcoR2 (cat# 50003); purchased BPS Bioscience (San Diego, CA) 50003
Method: As described, the length of compound-enzyme incubation has been reported to be critical for this class of HDAC inhibitors, where a unique time-dependent increase in affinity and subsequent potency has been observed [36]–[38]. […] To better mimic physiological conditions, our experiments were performed at 37°C as opposed to room temperature as reported in previous studies. […] To confirm that this shift was independent of the time of 4b in aqueous solution, 4b was applied immediately to the enzyme-substrate mix both after preparing in aqueous buffer, and 120 min after preparation.
To assess the biochemical and cellular potency of 4b and its conversion products/metabolites, we utilized the two-step fluorogenic assay which measures the HDAC-mediated catalytic conversion of synthetic acetylated lysine substrates. In brief, on deacetylation of the substrates by HDAC activity, a protease site is unmasked which allows subsequent trypsin-mediated cleavage and release of the highly flourescent AMC molecules in a subsequent step of the assay. The substrates used were Lys_Ac_AMC (Bachem I-1875) for HDAC3 and (Ac)Arg-Gly-Lys(Ac) (Bachem I-1925) for HDAC1 and HDAC2. The final substrates used for each enzyme assessment were carefully selected after assessing the catalytic turnover of each of these substrates against HDAC1, HDAC2 and HDAC3 respectively, and selecting the ones that performed best. To assess Class IIa enzyme activity (HDAC4, 5, 7, 9) and Class I HDAC8 activity, we used the alternative substrate Boc_Lys_TFA (Bachem I-1985), equivalent to substrate 4 of [42]. Class IIa HDACs have approximately 1000-fold less catalytic activity than Class 1 enzymes, and show only extremely low turnover of acetylated substrates due to a Tyr to His mutation in the active site. However, the relatively labile and sterically more demanding trifluoracetyl group is readily hydrolyzed by the catalytically less avid Class IIa enzymes, allowing measurement of Class IIa activity using the 2-step fluorogenic assay. Intriguingly the Boc_Lys_TFA substrate seems to show almost total selectivity for Class IIa enzymes over class I and Class IIb enzymes, with the exception of HDAC8 ([42], and internal data).
For evaluation of the class selectivity of the compounds, we assessed inhibition against purified recombinant human full length HDAC1 (cat# 50051), HDAC2 (cat# 50052), HDAC3-NcoR2 (cat# 50003) and HDAC8 (cat# 50008): as representative of Class I activity; catalytic domain HDAC4(αα 648–1057), HDAC5 (αα 657–1123; cat # 50005), HDAC7 (αα 518-end; cat # 50007) and HDAC9 (αα 604–1066; cat # 50009) activity: representing all Class IIa activity; and full length HDAC6 (cat#50006): representing Class IIb activity. With the exception of purified catalytic domain HDAC4, which was prepared for us by Emerald Biosciences (Seattle, WA), all HDAC enzymes were purchased from BPS Bioscience (San Diego, CA).
Unless otherwise stated in the text, assays were run in the following format in 384-well plates using automated liquid handling procedures. Briefly, frozen enzyme stock and compounds were diluted in assay buffer (50 mM Tris-HCl, 137 mM NaCl, 2.7 mM KCl, 1 mM MgCl2 at pH 8.0) and added to plates at concentrations sufficient to achieve a 16-point concentration-response curve from 50 µM to 1 nM at 1% DMSO final concentration, after addition of all reagents. Substrate diluted in assay buffer was then added and plates were incubated after brief shaking for 60 min at 37°C. Following incubation, a developer/stop-step was introduced to terminate the reaction and cleave the fluorescent substrate: either the addition of trypsin with 10 µM Compound 26 [44] for the Class IIa enzymes, or trypsin with 5 µM Trichostatin A (TSA) for the Class I/IIb enzymes. Plates were briefly shaken and then returned to the incubator for a further 60 min, followed by measurement of fluorescence per well (Ex 355 nm, Em 460 nm) on a Perkin Elmer EnVision. […]

[3] = Simulated gastric fluid stability; assay type: in vitro ADME
Method: Simulated gastric fluid (SGF), pH 1.2, was prepared containing 2 g/L sodium chloride, 3.2 g/L of pepsin, 0.7% (v/v) HCl. Gastric buffer, pH 1.2, was also prepared containing 2 g/L sodium chloride and 0.7% (v/v) HCl. Test compound (10 µM) was added to both fluids and samples were mixed at room temperature on an orbital shaker. At each time-point (0, 2 and 4 h) 50 µL of sample was added to 150 µL DMSO, mixed and analysed immediately. Samples were analysed by LC-UV (λ = 254 nm. The instrument responses (i.e. chromatographic peak areas) were referenced to the zero time-point samples (as 100%) in order to determine the percentage of compound remaining at each time-point.

FXN = test system: FXN; parameters: method as in PMID 16921367; conditions: cited from earlier work
AR (h) = test: Cerep binding, agonist radioligand; parameters: species or system human; conditions: 10 μM
Text: as §1

T1 sequence (O15379 whole entry): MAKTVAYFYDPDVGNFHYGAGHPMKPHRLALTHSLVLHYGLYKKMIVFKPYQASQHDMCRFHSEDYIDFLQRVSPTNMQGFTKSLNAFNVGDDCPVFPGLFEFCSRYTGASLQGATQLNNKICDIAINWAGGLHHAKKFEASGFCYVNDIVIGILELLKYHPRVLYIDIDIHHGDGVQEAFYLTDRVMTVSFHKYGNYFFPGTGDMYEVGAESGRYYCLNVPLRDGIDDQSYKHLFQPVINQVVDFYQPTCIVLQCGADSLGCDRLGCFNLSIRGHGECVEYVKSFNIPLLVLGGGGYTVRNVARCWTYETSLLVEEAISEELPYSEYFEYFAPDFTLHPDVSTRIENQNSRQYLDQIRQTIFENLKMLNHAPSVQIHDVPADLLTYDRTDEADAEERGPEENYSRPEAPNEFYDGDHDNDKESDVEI
T1 sequence (Q9Y618 395-489 partner limits assumed): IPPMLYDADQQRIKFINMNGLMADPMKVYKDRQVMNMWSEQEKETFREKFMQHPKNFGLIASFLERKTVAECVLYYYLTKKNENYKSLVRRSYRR

| Compound | histone acetylation in cortical tissue (H3K4, H3K9, H3K14, H4K5, Ac-H3, Ac-H4) [1] | off-target profile in the Cerep Diversity Profile [2] | selectivity for HDAC3 over HDAC2 (HDAC3-NcoR2) | IC50 (HDAC3-NcoR2; 0 min pre-incubation with enzyme, then 60 min substrate, 37°C) | IC50 (HDAC3-NcoR2; 2 h pre-incubation with enzyme (3 h incubation in total), 37°C) | IC50 (HDAC3-NcoR2; no enzyme pre-incubation, applied 120 min after preparation in aqueous buffer) | IC50 (HDAC3-NcoR2; no enzyme pre-incubation, applied immediately after preparing in aqueous buffer) | selectivity within the Class I enzymes for HDAC3 (HDAC3-NcoR2; standard screening format) | IC50 (HDAC3-NcoR2; standard screening format, free base, DMSO stock) | turnover in simulated gastric fluid ([3]; in 4 h) | half-life at 10 µM ([3]; simulated gastric fluid (SGF), pH 1.2) | increase in FXN protein levels (FXN; at 2.5 µM) | enhancement of FXN mRNA (FXN; at 5 µM) | % inhibition of control specific binding (AR (h)) |
| --- | --- | --- | --- | --- | --- | --- | --- | --- | --- | --- | --- | --- | --- | --- |
| Nc1ccccc1NC(=O)CCCCCC(=O)Nc1ccccc1 [Compound 4b] | failed to enhance histone acetylation | clean | ~9 fold | 0.65 µM | 0.08 µM | 0.65 µM | 0.97 µM | ~6 fold | 0.254 µM | 5% | > 10 h | 3.5 fold | 2.5 fold | – |
| O=C(CCCCCc1nc2ccccc2[nH]1)Nc1ccccc1 [Compound C1, 6-(1-H-benzo[d]imidazol-2-yl)-N-phenylhexanamide] | – | – | – | – | – | – | – | – | – | – | – | – | – | 3% |
